Measured values: patent publication US11203754B2, “Microrna compositions and methods of making and using same” (Advanced ReGen Medical Technologies, LLC, priority 2016, dated 2021)

Key:
[1] = tested on: adult stem cells in transwell culture; test: Exosome production in transwell cultures with exosome inhibitors; assay type: cell-based; conditions: BCI-137 10 μM, GW4869 3.5 μM, added Day 0 and Day 3, NONE = 710
Protocol: A series of transwell experiments were carried out by placing adult stem cells of a donor subject (i.e., donor cells) in the upper chamber of a transwell assembly while the adult stem cells of a receiver subject (i.e. receiver cells) were placed in the lower chamber. Referring to FIG. 2, the transwell culture 400 comprised an insert 410 having a permeable surface that allows the donor cells to uptake and secrete molecules on the basal and/or apical surfaces of the transwell. The transwell insert 410 comprised a permeable membrane with a 0.4 μm pore size. At least a portion of the donor cell sample 420 was applied to the transwell insert 410 while the receiver cell sample 430 was positioned within the lower compartment of the transwell culture with an appropriate amount of culture media.
(§1) Exosomes were collected and quantified to determine the effects of inhibitors on exosome production while RNA extracted from the exosomes were analyzed to determine exosome depletion and levels of RNA depletion.

[2] = tested on: SNORD68; test: Exosomal RNA (ExoRNA) level, SNORD68, with inhibitors; assay type: cell-based; conditions: BCI-137 10 μM, GW4869 3.5 μM; NONE = 1
Protocol: as §1
(§2) SNORD68 and SNORD95 are small nucleolar RNAs.

[3] = tested on: SNORD95; test: Exosomal RNA (ExoRNA) level, SNORD95, with inhibitors; assay type: cell-based; conditions: BCI-137 10 μM, GW4869 3.5 μM; NONE = 1
Protocol: as §1, §2

[4] = tested on: miRNAs in exosomes; test: miRNA depletion in exosomes harvested from the heterochronic culture; assay type: cell-based
Protocol: as §1, §2

[5] = tested on: CD34+ cells
Protocol: (§3) To the transwell cultures was added either a pharmacological inhibitor of exosome biogenesis GW4869 (3.5 μM) or an inhibitor of exosome packaging BCI-137 (10 μM). […] Inhibitors were added to the transwell cultures upon initial seeding (Day 0) and again at Day 3.
(§4) Further analysis of the effect of the inhibitors on cell function was assessed by determining the total cell vitality, the CD34+ cell vitality and the extent of CD34+ cell expansion.

[6] = tested on: CD34+ stem cell; test: microRNA nucleofection into mature blood cells: CD34+ clonogenicity (CFU-GM); assay type: cell-based, human; conditions: Table 8 Experiment #1; total 60 nM into mature blood cells; siRNA vehicle = 20, No Treatment = 10
Protocol: Candidate microRNAs involved in facilitating adoptive cellular restoration therapy were miR-146a, miR-103a, miR-106a and miR-19a. Combinations of candidate microRNAs were nucleofected at a total concentration of 60 nM into mature blood cells using the CD34+ cell human nucleofector kit (Lonza) and the human CD34+ cell protocol, and effect on CD34+ stem cell vitality and clonogenicity were evaluated compared to siRNA vehicle control. Further, the microRNA combination of miR-103a, miR-106b and miR-19a were nucleofected at a total concentration of 90 nM into mature blood cells using the P3 Primary Cell 4D-Nucleofector X Kit (Lonza) and the human T cell high efficiency protocol, and effect on T cell activation and cell-mediated cytotoxicity were evaluated compared to siRNA vehicle control. Additional candidate microRNAs involved in facilitating adoptive cellular restoration therapy identified were miR-1303, miR-7851-3p, miR-223, miR-4497, miR-619-5p and miR-1273f. Combinations of these additional candidate microRNAs were nucleofected at a total concentration of 60 nM into mature blood cells using the CD34+ cell human nucleofector kit (Lonza) and the human CD34+ cell protocol, and effect on CD34+ clonogenicity was evaluated compared to siRNA vehicle control.

[7] = tested on: CD34+ cells; test: Effect of inhibitor on CD34+ differentiation potential and restoration; assay type: cell-based
Description: as §2

[8] = tested on: CD34+ cells; test: Effect of inhibitors on cell function (total cell vitality, CD34+ cell vitality, CD34+ cell expansion); conditions: inhibitor added to transwell culture
Protocol: as §3, §4

Q: What does the source list for O=C(/C=C/c1ccc(/C=C/C(=O)Nc2ccc(C3=NCCN3)cc2)cc1)Nc1ccc(C2=NCCN2)cc1 [GW4869]?
A: Exosome Production (# exosomes × 10^8) [1]: 558 # exosomes × 10^8; Fold Change in ExoRNA SNORD68 [2]: 0.43 Fold Change; Fold Change in ExoRNA SNORD95 [3]: 0.67 Fold Change; depletion of miRNAs in exosomes [4]: effectively depleted miRNAs; toxicity to CD34+ cells [5]: appeared toxic

Q: For “miR-1303: isolated microRNA miR-1303 (SEQ ID NO:7) (UUUAGAGACGGGGUCUUGCUCU; listed as RNA, chemistry not given here; listed as Homo sapiens)”, which “CD34+ Differentiation (# CFU-GM)” value [6] is on record?
A: The value was 32 # CFU-GM.

Q: For CC(NS(=O)(=O)c1ccc2[nH]c(=O)c(=O)[nH]c2c1)C(=O)O (stereo not shown) [BCI-137], which “Exosome Production (# exosomes × 10^8)” value [1] is on record?
A: Its value is 604 # exosomes × 10^8.

Q: What about the “Fold Change in ExoRNA SNORD68” value [2] of the same compound?
A: Its value is 0.24 Fold Change.

Q: What about the “Fold Change in ExoRNA SNORD95” value [3] of the same compound?
A: The value was 0.33 Fold Change.

Q: And the “depletion of miRNAs in exosomes” value [4]?
A: Its value is “effectively depleted miRNAs”.

Q: And the “restorative effects of adoptive cell restoration” value ([7]; inhibition by BCI-137)?
A: Its value is “blocked the restorative effects”.

Q: What about the “differentiation in CD34+ heterochronic cells” value ([7]; inhibition with BCI-137) of the same compound?
A: Its value is “decreased”.

Q: And the “differentiation potential in the CD34+ mature cells” value ([7]; inhibition with BCI-137)?
A: The value was “increased”.

Q: And the “effect on the juvenile or mature cell health” value [8]?
A: Its value is “no effect”.

Q: “miR-619-5p: isolated microRNA miR-619-5p (SEQ ID NO:8) (GCUGGGAUUACAGGCAUGAGCC; listed as RNA, chemistry not given here; listed as Homo sapiens)” was tested. Which “CD34+ Differentiation (# CFU-GM)” value [6] did it give?
A: The value was 46 # CFU-GM.

Q: For “miR-223: isolated microRNA miR-223-5p (SEQ ID NO:5) (CGUGUAUUUGACAAGCUGAGUU; listed as RNA, chemistry not given here; listed as Homo sapiens)”, which “CD34+ Differentiation (# CFU-GM)” value [6] is on record?
A: Its value is 10 # CFU-GM.

Q: “miR-7851-3p: isolated microRNA miR-7851-3p (SEQ ID NO:10) (UACCUGGGAGACUGAGGUUGGA; listed as RNA, chemistry not given here; listed as Homo sapiens)” was tested. Which “CD34+ Differentiation (# CFU-GM)” value [6] did it give?
A: Its value is 14 # CFU-GM.

Q: Which “CD34+ Differentiation (# CFU-GM)” value [6] does the source give for “miR-4497: isolated microRNA miR-4497 (SEQ ID NO:6) (CUCCGGGACGGCUGGGC; listed as RNA, chemistry not given here; listed as Homo sapiens)” here?
A: The value was 20 # CFU-GM.

Q: Which “CD34+ Differentiation (# CFU-GM)” value [6] does the source give for “miR-1273f: isolated microRNA miR-1273f (SEQ ID NO:9) (GGAGAUGGAGGUUGCAGUG; listed as RNA, chemistry not given here; listed as Homo sapiens)” here?
A: Its value is 9 # CFU-GM.
